Reference: patent publication US20220220128A1, “HETEROCYCLIC COMPOUNDS AS KINASE INHIBITORS, COMPOSITIONS COMPRISING THE HETEROCYCLIC COMPOUND, AND METHODS OF USE THEREOF” (JS Innopharm (Shanghai) Ltd, priority 2019, published 2022)
Like-named read-outs stand apart in the source and are kept apart here.

Key:
human RET kinase = target: T1, human RET kinase (Homo sapiens, UniProt P07949); experiment: RET Kinase Assay (LanthaScreen TR-FRET enzymatic assay); assay type: biochemical; conditions: 7 nM RET, 23 μM ATP
T1 construct: purchased Carna 08-159
Summary of the method: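 TR-FRET enzymatic read-out using 23 μM ATP, 3 μM FAM-P2 substrate and 7 nM human RET, after 15-min compound pretreatment at room temperature and a 1 h reaction at 28° C in HEPES pH 7.5 buffer. Percent of DMSO control fitted to nonlinear sigmoid curves for IC50.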

BAF3-KIF5B-RET cells = target: T2, BAF3-KIF5B-RET cells (Homo sapiens, UniProt P07949); experiment: BAF3-KIF5B-RET Cell proliferation assay (CellTiter-Glo, 72 hours); assay type: cell-based; conditions: growth inhibition, read-out: BA/F3-KIF5B-RET Cellular activity
T2 construct: fused on or other part: P33176 (Kinesin-1 heavy chain)
Protocol: Compounds disclosed herein were tested for the inhibition of RET by a cancer cell proliferation assay commonly known as CellTiter-Glo assay. In this assay, a complete media was prepared by adding 10% fetal bovine serum to RPMI-1640 medium (Life technology) for BAF3-FIF5B-RET cells. BAF3-KIF5B-RET cells were added to each of 88 wells of a 96 well plate at a seeding density of 2,000 cells/well/95 μL. The cells were allowed to attach to the plate by incubating at 37° C. for 24 hours. The compound was dissolved in DMSO (SIGMA). A solution of test compound was prepared in complete media by serial dilution to obtain the following concentrations: 20 μM, 6.67 μM, 2.22 μM, 0.74 μM, 0.25 μM, 0.082 μM, 0.027 μM, 0.0091 μM and 0.0030 μM. The test compound solution (5 μL) was added to each of 80 cell-containing wells. The final concentrations of the compound were following: 1 μM, 0.33 μM, 0.11 μM, 0.037 μM, 0.012 μM, 0.0041 μM, 0.0014 μM, 0.00046 μM and 0.00015 μM. The final concentration of DMSO is 0.1%. To the 8 remaining cell-containing wells, only complete media (containing 0.1% DMSO) was added to form a control group in order to measure maximal proliferation. To the remaining 8 empty wells, complete media was added to for a vehicle control group in order to measure background. The plates were incubated at 37° C. for 72 hours. 50 μl of CellTiter-Glo® Reagent was added to each well. Mix contents for 2 minutes on an orbital shaker to induce cell lysis. Incubate at room temperature for 10 minutes to stabilize luminescent signal. Record luminescence on Paradigm. Cell viability (CV %) was calculated relative to vehicle (DMSO) treated control wells. The IC50 was calculated using GraphPad Prism.

human KDR kinase = target: T3, human KDR kinase (Homo sapiens, UniProt P35968); experiment: KDR Kinase Assay (LanthaScreen TR-FRET enzymatic assay); assay type: biochemical; conditions: 1.2 nM KDR, 92 μM ATP
T3 construct: purchased Carna 08-191
Summary of the method: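 TR-FRET enzymatic format: after 15-min room-temperature compound pretreatment, 1.2 nM human KDR phosphorylated 3 μM FAM-P22 with 92 μM ATP (HEPES pH 7.5, 28° C., one hour). Reactions were quenched with EDTA buffer. IC50 came from nonlinear sigmoid fits of percent-of-vehicle signal ratios.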

TT cells = experiment: TT Cell Proliferation Assay (WST-8, 8 days); assay type: cell-based; conditions: growth inhibition in TT cells, read-out: TT Cellular Activity
Summary of the method: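 IC50 was derived from absorbance at 450 nm after 5 h with WST-8, following 8 days' incubation at 37 °C. Final compound levels spanned 0.0005–5 μM in 0.5% DMSO. TT cells were seeded at 6,000 per well in 10% FBS RPMI-1640 and left to attach for 24 h beforehand.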

T1 sequence (P07949 29-1114): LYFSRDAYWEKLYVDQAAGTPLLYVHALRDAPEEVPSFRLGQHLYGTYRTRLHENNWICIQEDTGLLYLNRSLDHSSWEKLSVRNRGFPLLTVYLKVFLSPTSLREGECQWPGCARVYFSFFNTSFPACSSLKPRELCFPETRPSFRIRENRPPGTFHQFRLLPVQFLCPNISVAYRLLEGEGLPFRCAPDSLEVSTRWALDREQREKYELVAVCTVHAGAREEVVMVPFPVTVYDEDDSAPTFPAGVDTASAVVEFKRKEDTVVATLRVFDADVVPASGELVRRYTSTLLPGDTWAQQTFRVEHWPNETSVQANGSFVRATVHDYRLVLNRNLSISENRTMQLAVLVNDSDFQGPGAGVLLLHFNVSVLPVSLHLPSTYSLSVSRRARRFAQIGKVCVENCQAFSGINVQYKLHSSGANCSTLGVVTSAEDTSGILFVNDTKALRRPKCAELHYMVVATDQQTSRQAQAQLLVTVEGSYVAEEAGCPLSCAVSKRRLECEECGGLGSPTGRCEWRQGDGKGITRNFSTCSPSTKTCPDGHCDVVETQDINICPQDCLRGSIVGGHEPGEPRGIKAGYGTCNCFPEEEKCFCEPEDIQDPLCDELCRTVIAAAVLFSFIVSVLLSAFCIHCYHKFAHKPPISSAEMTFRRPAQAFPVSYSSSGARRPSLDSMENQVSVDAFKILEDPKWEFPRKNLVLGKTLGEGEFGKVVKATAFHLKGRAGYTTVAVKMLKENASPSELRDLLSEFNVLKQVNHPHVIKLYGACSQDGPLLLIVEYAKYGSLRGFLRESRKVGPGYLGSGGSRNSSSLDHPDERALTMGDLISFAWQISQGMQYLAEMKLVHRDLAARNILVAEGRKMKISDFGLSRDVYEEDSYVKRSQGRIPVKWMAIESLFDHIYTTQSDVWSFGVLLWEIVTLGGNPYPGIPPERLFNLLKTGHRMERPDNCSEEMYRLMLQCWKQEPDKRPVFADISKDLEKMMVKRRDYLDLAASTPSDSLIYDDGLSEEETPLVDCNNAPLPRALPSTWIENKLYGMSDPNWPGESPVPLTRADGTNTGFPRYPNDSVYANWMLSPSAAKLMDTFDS
T3 sequence (P35968 20-1356): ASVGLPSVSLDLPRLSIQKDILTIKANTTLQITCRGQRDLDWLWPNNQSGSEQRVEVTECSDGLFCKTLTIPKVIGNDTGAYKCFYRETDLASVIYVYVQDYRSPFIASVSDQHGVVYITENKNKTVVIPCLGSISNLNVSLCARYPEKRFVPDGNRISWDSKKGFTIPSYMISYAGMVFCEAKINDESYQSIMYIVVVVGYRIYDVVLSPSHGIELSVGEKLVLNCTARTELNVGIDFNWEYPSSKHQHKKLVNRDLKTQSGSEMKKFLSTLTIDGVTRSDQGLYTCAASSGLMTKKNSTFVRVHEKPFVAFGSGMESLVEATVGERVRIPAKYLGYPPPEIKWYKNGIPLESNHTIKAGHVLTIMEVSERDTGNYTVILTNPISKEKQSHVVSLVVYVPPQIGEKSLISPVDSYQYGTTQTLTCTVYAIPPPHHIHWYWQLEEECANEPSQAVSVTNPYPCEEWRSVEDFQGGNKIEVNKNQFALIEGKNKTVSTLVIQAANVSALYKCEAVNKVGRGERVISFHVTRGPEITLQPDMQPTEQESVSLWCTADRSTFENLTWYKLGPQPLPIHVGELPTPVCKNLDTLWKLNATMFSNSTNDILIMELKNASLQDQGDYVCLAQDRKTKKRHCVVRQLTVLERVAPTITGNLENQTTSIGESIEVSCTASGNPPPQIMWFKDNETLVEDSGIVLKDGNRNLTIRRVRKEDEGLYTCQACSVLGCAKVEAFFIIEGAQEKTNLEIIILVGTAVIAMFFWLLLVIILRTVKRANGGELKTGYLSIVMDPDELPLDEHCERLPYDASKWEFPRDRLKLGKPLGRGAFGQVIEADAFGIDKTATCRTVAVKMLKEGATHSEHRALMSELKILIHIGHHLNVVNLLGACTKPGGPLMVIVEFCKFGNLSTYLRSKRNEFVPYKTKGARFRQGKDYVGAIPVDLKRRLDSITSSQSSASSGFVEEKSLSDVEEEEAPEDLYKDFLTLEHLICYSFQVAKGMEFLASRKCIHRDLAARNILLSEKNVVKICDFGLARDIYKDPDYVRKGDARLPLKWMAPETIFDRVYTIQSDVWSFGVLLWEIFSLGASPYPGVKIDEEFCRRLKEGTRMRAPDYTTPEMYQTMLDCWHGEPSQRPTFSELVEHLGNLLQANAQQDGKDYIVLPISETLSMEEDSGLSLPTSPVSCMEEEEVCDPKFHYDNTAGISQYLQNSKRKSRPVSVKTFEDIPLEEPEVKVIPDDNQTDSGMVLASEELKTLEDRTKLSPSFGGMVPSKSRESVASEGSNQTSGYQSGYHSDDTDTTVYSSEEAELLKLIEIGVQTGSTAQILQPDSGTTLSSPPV
T2 sequence (P07949 whole entry, change not shown, the tested form may be a part): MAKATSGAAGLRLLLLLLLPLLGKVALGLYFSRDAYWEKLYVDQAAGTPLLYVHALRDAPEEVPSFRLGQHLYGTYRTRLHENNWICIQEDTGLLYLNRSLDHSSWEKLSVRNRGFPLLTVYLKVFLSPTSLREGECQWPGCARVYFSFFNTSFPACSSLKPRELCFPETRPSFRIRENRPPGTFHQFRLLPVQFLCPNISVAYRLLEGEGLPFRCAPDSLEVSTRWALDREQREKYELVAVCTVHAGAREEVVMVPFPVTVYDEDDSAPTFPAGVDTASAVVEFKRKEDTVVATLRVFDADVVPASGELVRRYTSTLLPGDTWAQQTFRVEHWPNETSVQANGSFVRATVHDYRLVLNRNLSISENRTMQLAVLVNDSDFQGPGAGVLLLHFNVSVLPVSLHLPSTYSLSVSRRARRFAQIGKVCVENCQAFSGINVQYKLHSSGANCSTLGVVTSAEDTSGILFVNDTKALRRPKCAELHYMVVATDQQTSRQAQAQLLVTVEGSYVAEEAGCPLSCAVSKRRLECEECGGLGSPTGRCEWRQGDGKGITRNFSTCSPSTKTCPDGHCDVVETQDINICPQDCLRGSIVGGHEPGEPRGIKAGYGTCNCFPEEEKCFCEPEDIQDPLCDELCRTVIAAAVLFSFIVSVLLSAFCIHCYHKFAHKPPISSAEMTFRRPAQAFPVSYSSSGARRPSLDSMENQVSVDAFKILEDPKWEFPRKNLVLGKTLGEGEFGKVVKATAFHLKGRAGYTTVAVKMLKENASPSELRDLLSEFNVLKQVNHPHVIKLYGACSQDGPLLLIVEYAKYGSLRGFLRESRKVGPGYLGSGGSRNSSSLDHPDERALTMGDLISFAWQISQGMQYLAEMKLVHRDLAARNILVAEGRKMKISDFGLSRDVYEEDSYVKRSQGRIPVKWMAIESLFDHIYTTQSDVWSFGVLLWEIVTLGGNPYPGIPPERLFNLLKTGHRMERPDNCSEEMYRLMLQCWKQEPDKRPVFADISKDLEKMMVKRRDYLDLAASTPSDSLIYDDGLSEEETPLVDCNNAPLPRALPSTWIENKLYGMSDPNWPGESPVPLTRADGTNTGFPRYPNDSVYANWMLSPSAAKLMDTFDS

| Structure (SMILES) | IC50 (human RET kinase) [nM] | GI50 (BAF3-KIF5B-RET cells) [nM] | IC50 (human KDR kinase) [nM] | IC50 (TT cells; Homo sapiens, TT, 192 h) [nM] | IC50 (TT cells) [nM] |
| --- | --- | --- | --- | --- | --- |
| Cn1cc(-c2cc(-c3cnc(N4C5CC6CC4CC(N)(C6)C5)cn3)c3c(C#N)cnn3c2)cn1 [Example 108, 4-(5-((1R,3S,5s,7s)-5-amino-2-azaadamantan-2-yl)pyrazin-2-yl)-6-(1-methyl-1H-pyrazol-4-yl)pyrazolo[1,5-a]pyridine-3-carbonitrile] | ≤ 10 | 10 to 50 | – | – | – |
| Cn1cc(-c2cc(-c3cnc(N4C5CC6CC4CC(NC(=O)c4ncccc4Cl)(C6)C5)cn3)c3c(C#N)cnn3c2)cn1 [Example 112, 3-chloro-N-((1R,3S,5s,7s)-2-(5-(3-cyano-6-(1-methyl-1H-pyrazol-4-yl)pyrazolo[1,5-a]pyridin-4-yl)pyrazin-2-yl)-2-azaadamantan-5-yl)picolinamide] | ≤ 10 | ≤ 10 | – | – | – |
| COc1ccc(CN2C[C@@H]3CN(c4cnc(-c5cc(OCC(C)(C)O)cn6ncc(C#N)c56)cn4)C[C@@H]3C2)cn1 [Example 120, 6-(2-hydroxy-2-methylpropoxy)-4-(5-((3aR,6aS)-5-((6-methoxypyridin-3-yl)methyl)hexahydropyrrolo[3,4-c]pyrrol-2(1H)-yl)pyrazin-2-yl)pyrazolo[1,5-a]pyridine-3-carbonitrile] | ≤ 10 | 10 to 50 | – | – | – |
| CC(C)(O)COc1cc(-c2ccc(N3C[C@@H]4[C@@H](CNC(=O)c5c(F)cccc5Cl)[C@@H]4C3)nc2)c2c(C#N)cnn2c1 [Example 125, 2-chloro-N-(((1R,5S,6s)-3-(5-(3-cyano-6-(2-hydroxy-2-methylpropoxy)pyrazolo[1,5-a]pyridin-4-yl)pyridin-2-yl)-3-azabicyclo[3.1.0]hexan-6-yl)methyl)-6-fluorobenzamide] | ≤ 10 | ≤ 10 | – | – | – |
| COc1ccc(C(=O)N2[C@@H]3CC[C@H]2[C@H]2CN(c4ccc(-c5cc(OCC(C)(C)O)cn6ncc(C#N)c56)cn4)C[C@H]23)cn1 [Example 174, 6-(2-hydroxy-2-methylpropoxy)-4-(6-((3aR,4S,7R,7aS)-8-(6-methoxynicotinoyl)hexahydro-1H-4,7-epiminoisoindol-2(3H)-yl)pyridin-3-yl)pyrazolo[1,5-a]pyridine-3-carbonitrile] | ≤ 10 | 10 to 50 | – | – | – |
| COc1cccnc1C(=O)NC[C@@H]1[C@H]2CN(c3ccc(-c4cc(-c5cnn(C)c5)cn5ncc(C#N)c45)cn3)C[C@@H]12 [Example 191, N-(((1R,5S,6s)-3-(5-(3-cyano-6-(1-methyl-1H-pyrazol-4-yl)pyrazolo[1,5-a]pyridin-4-yl)pyridin-2-yl)-3-azabicyclo[3.1.0]hexan-6-yl)methyl)-3-methoxypicolinamide] | ≤ 10 | ≤ 10 | – | – | – |
| Cn1cc(-c2cc(-c3ccc(N4C[C@@H]5C[C@@](C)(NS(=O)(=O)c6c(F)cccc6Cl)C[C@@H]5C4)nc3)c3c(C#N)cnn3c2)cn1 [Example 59, 2-chloro-N-((3aR,5s,6aS)-2-(5-(3-cyano-6-(1-methyl-1H-pyrazol-4-yl)pyrazolo[1,5-a]pyridin-4-yl)pyridin-2-yl)-5-methyloctahydrocyclopenta[c]pyrrol-5-yl)-6-fluorobenzenesulfonamide] | ≤ 10 | – | ≤ 10 | ≤ 10 | – |
| Cn1cc(-c2cc(-c3ccc(N4C[C@@H]5[C@@H](CNC(=O)OC(C)(C)C)[C@@H]5C4)nc3)c3c(C#N)cnn3c2)cn1 [Example 71, tert-butyl (((1R,5S,6s)-3-(5-(3-cyano-6-(1-methyl-1H-pyrazol-4-yl)pyrazolo[1,5-a]pyridin-4-yl)pyridin-2-yl)-3-azabicyclo[3.1.0]hexan-6-yl)methyl)carbamate] | ≤ 10 | – | 10 to 50 | ≤ 10 | – |
| Cn1cc(-c2cc(-c3ccc(N4C[C@@H]5[C@H](C4)[C@H]5NC(=O)C(N)c4ccccc4)nc3)c3c(C#N)cnn3c2)cn1 (stereo partly drawn) [Example 32, 2-amino-N-((1R,5S,6s)-3-(5-(3-cyano-6-(1-methyl-1H-pyrazol-4-yl)pyrazolo[1,5-a]pyridin-4-yl)pyridin-2-yl)-3-azabicyclo[3.1.0]hexan-6-yl)-2-phenylacetamide] | ≤ 10 | – | > 100 | ≤ 10 | – |
| COc1ccc(C(=O)N[C@]2(C)C[C@H]3CN(c4ccc(-c5cc(OCC(C)(C)O)cn6ncc(C#N)c56)cn4)C[C@H]3C2)cn1 [Example 126, N-((3aR,5s,6aS)-2-(5-(3-cyano-6-(2-hydroxy-2-methylpropoxy)pyrazolo[1,5-a]pyridin-4-yl)pyridin-2-yl)-5-methyloctahydrocyclopenta[c]pyrrol-5-yl)-6-methoxynicotinamide] | 10 to 50 | – | 10 to 50 | 50 to 100 | – |
| Cn1cc(-c2cc(-c3ccc(N4C5CC6CC4CC(NC(=O)c4ncccc4Cl)(C6)C5)nc3)c3c(C#N)cnn3c2)cn1 [Example 89, 3-chloro-N-((1R,3S,5s,7s)-2-(5-(3-cyano-6-(1-methyl-1H-pyrazol-4-yl)pyrazolo[1,5-a]pyridin-4-yl)pyridin-2-yl)-2-azaadamantan-5-yl)picolinamide] | ≤ 10 | – | ≤ 10 | ≤ 10 | – |
| COc1ccc(NC(=O)N[C@H]2[C@@H]3CN(c4ccc(-c5cc(-c6cnn(C)c6)cn6ncc(C#N)c56)cn4)C[C@@H]32)cn1 [Example 45, 1-((1R,5S,6s)-3-(5-(3-cyano-6-(1-methyl-1H-pyrazol-4-yl)pyrazolo[1,5-a]pyridin-4-yl)pyridin-2-yl)-3-azabicyclo[3.1.0]hexan-6-yl)-3-(6-methoxypyridin-3-yl)urea] | ≤ 10 | – | ≤ 10 | 50 to 100 | – |
| Cn1cc(-c2cc(-c3ccc(N4C[C@@H]5[C@H](CNC(=O)c6ncccc6Cl)[C@@H]5C4)nc3)c3c(C#N)cnn3c2)cn1 [Example 78, 3-chloro-N-(((1R,5S,6r)-3-(5-(3-cyano-6-(1-methyl-1H-pyrazol-4-yl)pyrazolo[1,5-a]pyridin-4-yl)pyridin-2-yl)-3-azabicyclo[3.1.0]hexan-6-yl)methyl)picolinamide] | ≤ 10 | – | ≤ 10 | ≤ 10 | – |
| Cc1cccc(Cl)c1C(=O)N[C@H]1[C@@H]2CN(c3ccc(-c4cc(-c5cnn(C)c5)cn5ncc(C#N)c45)cn3)C[C@@H]21 [Example 23, 2-chloro-N-((1R,5S,6s)-3-(5-(3-cyano-6-(1-methyl-1H-pyrazol-4-yl)pyrazolo[1,5-a]pyridin-4-yl)pyridin-2-yl)-3-azabicyclo[3.1.0]hexan-6-yl)-6-methylbenzamide] | ≤ 10 | – | ≤ 10 | ≤ 10 | – |
| Cc1cccc(Cl)c1C(=O)NC[C@@H]1[C@H]2CN(c3ccc(-c4cc(-c5cnn(C)c5)cn5ncc(C#N)c45)cn3)C[C@@H]12 [Example 84, 2-chloro-N-(((1R,5S,6s)-3-(5-(3-cyano-6-(1-methyl-1H-pyrazol-4-yl)pyrazolo[1,5-a]pyridin-4-yl)pyridin-2-yl)-3-azabicyclo[3.1.0]hexan-6-yl)methyl)-6-methylbenzamide] | ≤ 10 | – | ≤ 10 | – | ≤ 10 |
| CCOc1cc(-c2cnc(N3C[C@@H]4[C@H](C3)[C@@H]4NC(=O)c3ncccc3Cl)cn2)c2c(C#N)cnn2c1 [Example 41, 3-chloro-N-((1R,5S,6r)-3-(5-(3-cyano-6-ethoxypyrazolo[1,5-a]pyridin-4-yl)pyrazin-2-yl)-3-azabicyclo[3.1.0]hexan-6-yl)picolinamide] | > 100 | – | > 100 | > 100 | – |
| Cn1cc(-c2cc(-c3ccc(N4C[C@@H]5[C@H](C4)[C@H]5NC(=O)c4cc(F)ccc4Cl)nc3)c3c(C#N)cnn3c2)cn1 [Example 28, 2-chloro-N-((1R,5S,6s)-3-(5-(3-cyano-6-(1-methyl-1H-pyrazol-4-yl)pyrazolo[1,5-a]pyridin-4-yl)pyridin-2-yl)-3-azabicyclo[3.1.0]hexan-6-yl)-5-fluorobenzamide] | ≤ 10 | – | ≤ 10 | 10 to 50 | – |
